Here are results for 1 substance from patent US20240092837A1, “Novel Peptide Carrier Compositions” (The Regents of the University of Colorado, A Body Corporate, priority 2021, published 2024).

For this experiment, the system named is ARPE-19 cells. Description: Intracellular uptake of FITC labeled TAT and PHHP 1 peptides in ARPE-19 cells (fluorometry). The format is cell-based, human. The conditions noted are these: 10 and 5 μM. The protocol: FIG. 9 are graphs of quantitation of in vitro cell uptake study of FITC labeled PHIP (P 1) and TAT peptides in ARPE-19 cells. Cells were grown to a 10,000 well density in 96 well fluorescent imaging plates with a transparent bottom. The ARPE-19 cells required an additional 48 hrs, to reach this cell density. Cells were incubated with 200 μl of 10 and 5 μM/ml FITC labeled PHHP (P 1) and TAT peptides and uptake was continued for 1 hour at 37° C. Following uptake; cells were washed three times with acidic PBS (pH 5.0) and normal PBS (pH 7.4) at 37° C. Cells were lysed using 0.1 M NaOH and quantified using a fluorometry method. Panel A illustrates uptake of peptides by ARPE-19 cells and absolute amount, and panel B illustrates the percentage uptake of peptides at different concentrations.
The cell uptake study of FITC labeled PHHP peptides in an ARPE-19 cell line was studied using fluorometry. ARPE —19 cells were grown in a DMEM/F12 medium. A cell density of 10,000 cells was plated into a 96 well plate for each cell lines, 48 hours before the start of the uptake study. […] All the samples were brought to room temperature and fluorescence spectra were recorded at an excitation wavelength of 493 nm and emission wavelength of 520 nm. The percentage uptake and absolute uptake were determined for each peptide at different concentrations and plotted as a bar graph for comparative analyses in FIG. 3.
Intracellular uptake of TAT and PHHP 1 peptides in ARPE-19 cells. […] All the samples were then brought to room temperature and fluorescence intensities were recorded at an excitation wavelength of 493 nm and emission wavelength of 520 nm.
Percentage uptake and statistical analyses at different concentrations were compared. […] The percentage uptake of the PHHP 1 peptide was determined to be ˜15-17, whereas ˜3-4% for TAT peptide. […] Furthermore, these proteins in their PHHP 1 tagged and un-tagged forms were evaluated for intracellular uptake properties in ARPE-19, A549, and hCET cells lines and for transcellular migration behavior across bovine and rabbit eyes cornea following topical dosing (FIG. 9).

Consider “PHHP 1: positive, helical, hydrophobic peptide variant, sequence WWFWIWFWWGPGRRKRRKRRR [SEQ ID 1] (Sequence is synthesized)”, for which the “fold improvement in the uptake relative to the TAT peptide” value (1 hour uptake at 37° C.) is 4-7 fold. For the same substance, the “uptake behavior (percentage uptake versus concentration)” value (FITC labeled peptide, 1 hour) is on record as “concentration dependence”. The percentage uptake (FITC labeled peptide, 1 hour uptake at 37° C.) is listed as 15-17%.
